# Laboratory results from patent US20110319392A1, “Thiazole Sulfonamide And Oxazole Sulfonamide Kinase Inhibitors” (priority 2009, published 2011).
# Where a name gives a salt, the structure may show the parent alone.
# How the values were obtained:
# B-Raf = B-Raf (Homo sapiens, UniProt P15056); assay: B-Raf Accelerated MEK ATPase assay (BRAMA), Method A or B; type: biochemical; settings: Method B: final MEK 150 nM, single end point read
# Outline: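 ADP production, initiated by catalytic activated Raf with unphosphorylated MEK, is followed by NADH oxidation through a PK/LDH coupled system. Method B differs from the kinetic Method A by a single end-point read and 150 nM final MEK.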
# SK-MEL-28 tumor cells = assay: Cell growth inhibition assay (CellTiter-Glo), SK-MEL-28; type: cell-based, Human; settings: Homo sapiens, SK-MEL-28, 72 h; 3 days incubation
# Outline: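 Readout was CellTiter-Glo luminescence (total ATP, surrogate for cell number) after 3-day exposure at 37° C, 5% CO2 to 1:3 serial compound dilutions in 0.2% final DMSO. Seeding was 500 cells/well; IC50 derived by 4-parameter fit relative to vehicle-treated wells.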
# A375P F11s tumor cells = assay: Cell growth inhibition assay (CellTiter-Glo), A375P F11s; type: cell-based, Human; settings: Homo sapiens
# Outline: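 Cells plated at 500 cells/well in their growth media, dosed next day with nine-step 1:3 compound dilutions (final DMSO 0.2%), then incubated 3 days at 37° C, 5% CO2. Total ATP read by CellTiter-Glo luminescence as a surrogate for cell number; IC50 interpolated from 4-parameter fit versus DMSO controls.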
# Sequence of B-Raf (P15056 whole entry): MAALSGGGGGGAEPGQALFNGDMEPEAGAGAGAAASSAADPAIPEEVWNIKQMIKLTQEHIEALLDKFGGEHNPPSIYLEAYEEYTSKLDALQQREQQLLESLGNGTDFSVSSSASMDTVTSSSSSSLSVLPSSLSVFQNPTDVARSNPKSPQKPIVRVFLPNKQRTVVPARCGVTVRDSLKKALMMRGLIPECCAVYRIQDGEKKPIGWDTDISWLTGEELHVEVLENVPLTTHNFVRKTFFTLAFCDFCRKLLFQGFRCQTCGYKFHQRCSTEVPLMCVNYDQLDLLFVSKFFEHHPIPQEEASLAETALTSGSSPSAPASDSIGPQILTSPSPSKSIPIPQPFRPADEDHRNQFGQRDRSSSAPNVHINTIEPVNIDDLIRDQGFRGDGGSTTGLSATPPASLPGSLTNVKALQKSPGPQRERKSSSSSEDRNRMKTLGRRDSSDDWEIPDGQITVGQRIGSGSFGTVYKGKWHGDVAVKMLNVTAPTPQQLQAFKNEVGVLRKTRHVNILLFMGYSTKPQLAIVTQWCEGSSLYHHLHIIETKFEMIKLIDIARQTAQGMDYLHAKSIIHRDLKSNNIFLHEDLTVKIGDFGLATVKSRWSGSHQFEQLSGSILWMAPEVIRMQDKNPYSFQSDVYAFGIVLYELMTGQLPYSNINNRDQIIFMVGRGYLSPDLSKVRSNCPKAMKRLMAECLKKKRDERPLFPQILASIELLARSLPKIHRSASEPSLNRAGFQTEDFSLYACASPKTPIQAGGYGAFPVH
SMILES,IC50 (B-Raf) [nM],IC50 (SK-MEL-28 tumor cells) [nM],IC50 (A375P F11s tumor cells) [nM]
CC(C)c1nc(-c2cncc(NS(=O)(=O)c3c(F)cccc3F)c2)c(-c2ccnc(Nc3ccc(N4CCOCC4)nc3)n2)s1 [Example 47],< 100,< 100,< 100
CC(C)c1nc(-c2cccc(NS(=O)(=O)c3ccco3)c2)c(-c2ccnc(Nc3ccc(N4CCOCC4)nc3)n2)s1 [Example 53],< 100,< 100,< 100
"CN(C)c1nc(-c2ccc(F)c(NS(=O)(=O)c3c(F)cccc3F)c2)c(-c2ccnc(Nc3ccc(N4CCOCC4)nc3)n2)s1 [Example 27, N-{5-[2-(Dimethylamino)-5-(2-{[6-(4-morpholinyl)-3-pyridinyl]amino}-4-pyrimidinyl)-1,3-thiazol-4-yl]-2-fluorophenyl}-2,6-difluorobenzenesulfonamide]",< 100,100 to 1000,< 100
CC(C)(C)c1nc(-c2ccc(F)c(NS(=O)(=O)c3c(F)cccc3F)c2)c(-c2ccnc(Nc3ccc(N4CCN(CCF)CC4)c(F)c3)n2)s1 [Example 99],< 100,100 to 1000,100 to 1000
CC(C)c1nc(-c2ccc(F)c(NS(=O)(=O)c3c(F)cccc3F)c2)c(-c2ccnc(Nc3cccc(CCS(N)(=O)=O)c3)n2)s1 [Example 113],< 100,100 to 1000,100 to 1000
COc1ccc(S(C)(=O)=O)cc1Nc1nccc(-c2sc(N3CCOCC3)nc2-c2cccc(NS(=O)(=O)c3c(F)cccc3F)c2F)n1 [Example 157],< 100,< 100,< 100
"CC(C)c1nc(-c2cc(F)c(F)c(NS(=O)(=O)c3cccc(F)c3)c2)c(-c2ccnc(Nc3cnc(N4CCOCC4)c(F)c3)n2)s1 [Example 31, N-{2,3-Difluoro-5-[5-(2-{[5-fluoro-6-(4-morpholinyl)-3-pyridinyl]amino}-4-pyrimidinyl)-2-(1-methylethyl)-1,3-thiazol-4-yl]phenyl}-3-fluorobenzenesulfonamide]",< 100,100 to 1000,100 to 1000
CC(C)c1nc(-c2cccc(NS(=O)(=O)c3c(F)cccc3F)c2F)c(-c2ccnc(Nc3ccc(N4CCOCC4)nc3)n2)s1 [Example 123],< 100,< 100,< 100
O=S(=O)(Nc1cccc(-c2nc(N3CCCCC3)sc2-c2ccnc(Nc3ccc(N4CCOCC4)nc3)n2)c1)c1c(F)cccc1F [Example 151],< 100,< 100,< 100
CC(C)c1nc(-c2ccc(F)c(NS(=O)(=O)c3ccccc3C#N)c2)c(-c2ccnc(Nc3ccc(N4CCOCC4)nc3)n2)s1 [Example 107],< 100,100 to 1000,100 to 1000
"CC(C)c1nc(-c2cccc(NS(=O)(=O)c3c(F)cccc3F)c2)c(-c2ccnc(Nc3ccc(N4CCOCC4)c(C(=O)O)c3)n2)s1 [Example 14, 5-({4-[4-(3-{[(2,6-Difluorophenyl)sulfonyl]amino}phenyl)-2-(1-methylethyl)-1,3-thiazol-5-yl]-2-pyrimidinyl}amino)-2-(4-morpholinyl)benzoic acid]",< 100,< 100,< 100
"CC(C)c1nc(-c2ccnc(NS(=O)(=O)c3c(F)cccc3F)c2)c(-c2ccnc(Nc3ccc(N4CCOCC4)nc3)n2)s1 [Example 32, 2,6-Difluoro-N-{4-[2-(1-methylethyl)-5-(2-{[6-(4-morpholinyl}-3-pyridinyl]amino}-4-pyrimidinyl)-1,3-thiazol-4-yl]-2-pyridinyl}benzenesulfonamide]",< 100,< 100,< 100
CC(C)c1nc(-c2ccc(F)c(NS(=O)(=O)c3c(F)cccc3F)c2)c(-c2ccnc(Nc3ccc(N4CCN5CCOC[C@H]5C4)nc3)n2)s1 [Example 97],< 100,< 100,< 100
CCc1nc(-c2cccc(CNS(=O)(=O)c3ccccc3)c2)c(-c2ccnc(Nc3ccc(N4CCOCC4)c(F)c3)n2)s1 [Example 34],< 100,100 to 1000,100 to 1000
O=S(=O)(Nc1cccc(-c2ncsc2-c2ccnc(Nc3ccc(N4CCOCC4)nc3)n2)c1)c1c(F)cccc1F [Example 162],< 100,< 100,< 100
CC(C)c1nc(-c2cc(F)c(F)c(NS(=O)(=O)c3cccc(F)c3)c2)c(-c2ccnc(Nc3ccc(N4CCN(CCF)CC4)c(F)c3)n2)s1 [Example 101],< 100,100 to 1000,100 to 1000

SMILES,IC50 (B-Raf) [nM],IC50 (SK-MEL-28 tumor cells) [nM],IC50 (A375P F11s tumor cells) [nM]
"CC(C)c1nc(-c2cccc(NS(=O)(=O)c3c(F)cccc3F)c2F)c(-c2ccnc(Nc3ccc(N4CCN(CCF)CC4)c(F)c3)n2)s1 [Example 29, 2,6-Difluoro-N-{2-fluoro-3-[5-[2-({3-fluoro-4-[4-(2-fluoroethyl)-1-piperazinyl]phenyl}amino)-4-pyrimidinyl]-2-(1-methylethyl)-1,3-thiazol-4-yl]phenyl}benzenesulfonamide]",< 100,< 100,< 100
"CC(=O)N1CCN(c2ccc(Nc3nccc(-c4sc(C(C)C)nc4-c4cccc(NS(=O)(=O)c5ccccc5F)c4)n3)cn2)CC1 [Example 12, N-{3-[5-(2-{[6-(4-Acetyl-1-piperazinyl)-3-pyridinyl]amino}-4-pyrimidinyl)-2-(1-methylethyl)-1,3-thiazol-4-yl]phenyl}-2-fluorobenzenesulfonamide]",< 100,< 100,< 100
CC(C)c1nc(-c2cccc(NS(=O)(=O)c3c(F)cccc3F)c2)c(-c2ccnc(Nc3ccc(N4CCN5CCOC[C@H]5C4)nc3)n2)s1 [Example 15],< 100,< 100,< 100
COc1ccc(S(=O)(=O)Nc2cccc(-c3nc(C(C)C)sc3-c3ccnc(Nc4ccc(N5CCOCC5)nc4)n3)c2)cn1 [Example 49],< 100,< 100,< 100
"O=S(=O)(Nc1cccc(-c2nc(N3CCCC3)sc2-c2ccnc(Nc3ccc(N4CCN(CCF)CC4)c(F)c3)n2)c1)c1c(F)cccc1F [Example 21, 2,6-Difluoro-N-{3-[5-[2-({3-fluoro-4-[4-(2-fluoroethyl)-1-piperazinyl]phenyl}amino)-4-pyrimidinyl]-2-(1-pyrrolidinyl)-1,3-thiazol-4-yl]phenyl}benzenesulfonamide]",< 100,< 100,< 100
O=S(=O)(Nc1cc(-c2nc(N3CCCC3)oc2-c2ccnc(Nc3ccc(N4CCN(CCF)CC4)c(F)c3)n2)ccc1F)c1c(F)cccc1F [Example 114],100 to 1000,100 to 1000,100 to 1000
COc1cc(N2CCN(CCS(C)(=O)=O)CC2)c(C)cc1Nc1nccc(-c2sc(N3CCOCC3)nc2-c2cccc(NS(=O)(=O)c3c(F)cccc3F)c2)n1 [Example 128],100 to 1000,100 to 1000,100 to 1000
CS(=O)(=O)CCN1CCN(c2ccc(Nc3nccc(-c4oc(N5CCCC5)nc4-c4ccc(F)c(NS(=O)(=O)c5c(F)cccc5F)c4)n3)cc2F)CC1 [Example 119],< 100,100 to 1000,100 to 1000
O=S(=O)(Nc1cc(-c2nc(N3CCOCC3)sc2-c2ccnc(Nc3ccc(N4CCOCC4)nc3)n2)ccc1F)c1c(F)cccc1F [Example 121],< 100,100 to 1000,100 to 1000
CS(=O)(=O)c1cccc(Nc2nccc(-c3sc(N4CCOCC4)nc3-c3cccc(NS(=O)(=O)c4c(F)cccc4F)c3Cl)n2)c1 [Example 145],< 100,< 100,< 100
CC(C)c1nc(-c2ccnc(NS(=O)(=O)c3c(F)cccc3F)c2)c(-c2ccnc(Nc3cnc(N4CCOCC4)c(F)c3)n2)s1 [Example 33],< 100,< 100,< 100
Cc1nc(-c2cccc(NS(=O)(=O)c3c(F)cccc3F)c2)c(-c2ccnc(Nc3ccc(N4CCOCC4)nc3)n2)s1 [Example 133],< 100,< 100,< 100
"CC(C)c1nc(-c2ccc(F)c(NS(=O)(=O)c3ccccc3F)c2)c(-c2ccnc(Nc3ccc(N4CCN(CCS(C)(=O)=O)CC4)c(F)c3)n2)s1 [Example 22, 2-Fluoro-N-{2-fluoro-5-[5-{2-[(3-fluoro-4-}4-[2-(methylsulfonyl)ethyl]-1-piperazinyl}phenyl)amino]-4-pyrimidinyl}-2-(1-methylethyl)-1,3-thiazol-4-yl]phenyl}benzenesulfonamide hydrochloride]",< 100,< 100,< 100
"COc1cc(N2CCC(N3CCN(CCS(C)(=O)=O)CC3)CC2)ccc1Nc1nccc(-c2sc(C(C)C)nc2-c2cccc(NS(=O)(=O)c3c(F)cccc3F)c2)n1 [Example 20, 2,6-Difluoro-N-{3-[2-(1-methylethyl)-5-(2-{[2-(methyloxy)-4-(4-{4-[2-(methylsulfonyl)ethyl]-1-piperazinyl}-1-piperidinyl)phenyl]amino}-4-pyrimidinyl)-1,3-thiazol-4-yl]phenyl}benzenesulfonamide]",< 100,< 100,100 to 1000
CC(=O)N1CCN(c2ccc(Nc3nccc(-c4sc(C(C)C)nc4-c4cccc(NS(=O)(=O)c5cn(C)cn5)c4)n3)cn2)CC1 [Example 36],< 100,100 to 1000,100 to 1000
"CC(C)c1nc(-c2cccc(NS(=O)(=O)c3c(F)cccc3F)c2)c(-c2ccnc(Nc3ccc(OC4CCN(CCS(C)(=O)=O)CC4)c(F)c3)n2)s1 [Example 13, 2,6-Difluoro-N-{3-[5-(2-{[3-fluoro-4-({1-[2-(methylsulfonyl)ethyl]-4-piperidinyl}oxy)phenyl]amino}-4-pyrimidinyl)-2-(1-methylethyl)-1,3-thiazol-4-yl]phenyl}benzenesulfonamide hydrochloride]",< 100,< 100,< 100
